Assay results: ChEMBL document CHEMBL1201862, “PubChem BioAssay data set” (2004)
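Following 48 hours of exposure in 96-well plates, responses at five concentrations were used to interpolate endpoints linearly. GI50 = concentration required for 50% inhibition of growth.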 The source made the active and inactive calls. Cut-off read from the data, not from the text of the source: active = GI50 up to about 1.1 µM and inactive = higher.

Legend:
Assay in all cases: NCI-60 cell line screen, 48 h
NCI-H460 = test system: NCI-H460
NCI-H23 = test system: NCI-H23
HCT-15 = test system: HCT-15
HOP-62 = test system: HOP-62
MDA-N = test system: MDA-N
NCI/ADR-RES = test system: NCI/ADR-RES
CCRF-CEM = test system: CCRF-CEM
HL-60 = test system: HL-60
SNB-75 = test system: SNB-75
OVCAR-4 = test system: OVCAR-4
A498 = test system: A498
SK-MEL-2 = test system: SK-MEL-2
RPMI-8226 = test system: RPMI-8226
UACC-62 = test system: UACC-62
SK-MEL-28 = test system: SK-MEL-28
HT-29 = test system: HT-29
HOP-92 = test system: HOP-92
KM12 = test system: KM12
NCI-H522 = test system: NCI-H522
OVCAR-3 = test system: OVCAR-3

Structure (SMILES)	GI50 (NCI-H460)	GI50 (NCI-H23)	GI50 (HCT-15) [µM]	GI50 (HOP-62)	GI50 (MDA-N)	GI50 (NCI/ADR-RES)	GI50 (CCRF-CEM)	GI50 (HL-60)	GI50 (SNB-75)	GI50 (OVCAR-4)	GI50 (A498)	GI50 (SK-MEL-2)	GI50 (RPMI-8226)	GI50 (UACC-62)	GI50 (SK-MEL-28)	GI50 (HT-29)	GI50 (HOP-92)	GI50 (KM12)	GI50 (NCI-H522)	GI50 (OVCAR-3)
Cc1nc2cccc([N+](=O)[O-])c2c(NCCCN(C)C)c1C	24 µM (inactive)	28.1 µM (inactive)	26.5	28.9 µM (inactive)	26.7 µM (inactive)	> 100 µM (inactive)	21.3 µM (inactive)	11 µM (inactive)	49.7 µM (inactive)	17.3 µM (inactive)	34.8 µM (inactive)	> 51.3 µM (inactive)	34.8 µM (inactive)	> 100 µM (inactive)	> 100 µM (inactive)	19.9 µM (inactive)	> 100 µM (inactive)	34.6 µM (inactive)	15.2 µM (inactive)	26.6 µM (inactive)
Cc1ccc(NC(c2ccccc2)P(=O)(c2ccccc2)c2ccccc2)cc1 (stereo not given)	> 100 µM (inactive)	> 100 µM (inactive)	> 100	95.5 µM (inactive)	> 100 µM (inactive)	> 100 µM (inactive)	> 10 µM (inactive)	34 µM (inactive)	13.7 µM (inactive)	> 100 µM (inactive)	> 100 µM (inactive)	39.6 µM (inactive)	> 100 µM (inactive)	> 100 µM (inactive)	> 100 µM (inactive)	> 100 µM (inactive)	27.2 µM (inactive)	> 100 µM (inactive)	> 100 µM (inactive)	> 100 µM (inactive)
NS(=O)(=O)c1ccc(N=C2C(=O)Nc3ccccc32)cc1	> 100 µM (inactive)	> 100 µM (inactive)	> 100	> 100 µM (inactive)	> 100 µM (inactive)	> 100 µM (inactive)	55.8 µM (inactive)	> 100 µM (inactive)	> 100 µM (inactive)	> 100 µM (inactive)	> 100 µM (inactive)	> 100 µM (inactive)	> 100 µM (inactive)	> 100 µM (inactive)	> 100 µM (inactive)	> 100 µM (inactive)	> 100 µM (inactive)	> 100 µM (inactive)	70.8 µM (inactive)	> 100 µM (inactive)
Cc1nc2c(Br)cc(Br)cc2c(=O)n1-c1ccccc1NC1OC(CO)C(O)C(O)C1O (stereo not given)	> 100 µM (inactive)	> 100 µM (inactive)	> 100	> 100 µM (inactive)	> 100 µM (inactive)	> 100 µM (inactive)	> 100 µM (inactive)	> 100 µM (inactive)	61.1 µM (inactive)	> 100 µM (inactive)	> 100 µM (inactive)	> 100 µM (inactive)	> 100 µM (inactive)	> 100 µM (inactive)	> 100 µM (inactive)	> 100 µM (inactive)	> 100 µM (inactive)	> 100 µM (inactive)	> 100 µM (inactive)	> 100 µM (inactive)
CCOC(=O)C(SCCO)C(C(=O)OCC)n1cc(C)c(=O)[nH]c1=O (stereo not given)	21.5 µM (inactive)	21.2 µM (inactive)	4.41	> 61.2 µM (inactive)	15.1 µM (inactive)	24.8 µM (inactive)	2.42 µM (inactive)	2.12 µM (inactive)	34.1 µM (inactive)	23 µM (inactive)	20.4 µM (inactive)	19.6 µM (inactive)	7.89 µM (inactive)	16.3 µM (inactive)	19.4 µM (inactive)	12.9 µM (inactive)	15.6 µM (inactive)	25.8 µM (inactive)	3.3 µM (inactive)	12.5 µM (inactive)
